This passage reports inhibition in vivo results from patent EP0059606A1, “Benzothiopyrano(2,3-d)-v-triazole derivatives and pharmaceutical compositions containing them” (BEECHAM GROUP PLC, priority 1981, dated 1982).

The test system of this assay is rat PCA. Put plainly: Passive cutaneous anaphylaxis (PCA) in rats. Format: in vivo. The following applies: iv, 0 h, carrier PBS with NaHCO3, time 0 mins between administration and antigen challenge. As to the method:
Serum containing heat labile homocytotropic antibody was raised in rats to crystallised ovalbumin (Grade 3 Sigma) by the Method of I. Mota (Immunology 7, 681 (1964)) using Bordetella pertussis vaccine ([…] Burroughs Welcome) as adjuvant.
Passive cutaneous anaphylaxis (PCA) was carried out by a method based on that of Ovary and Bier, (Proc. Soc. Exp. Bio. Med., 81; 584 (1952)) as modified by Goose and Blair (Immunology, 16, 749 (1969)) Male Sprague Dawley rats 230 - 340 gm were given 0.1 ml of each of six two fold serial dilutions of pooled antiserum in 0.9% saline (Polyfusor Boots) injected intradermally into separate sites on their shaved backs. 72 Hours later the rats were challenged by intravenous injection of 0.3 ml of a 1% solution of ovalbumin in isotonic saline buffered with 0.05M, pH 7.2 Sorenson Buffer (Bactohaemagglutination buffer Difco Laboratories), mixed with 0.2 ml of a 5% solution of Pontamine Sky Blue (6 BX C.l. 24410 Raymond A Lamb) in isotonic saline. The rats were killed after 20 minutes and the diameter of the blue wheals at the antibody injection sites was measured on the outer surface of the skin. The starting dilution of the serum was adjusted so that there was no response, after challenge, at the injection site of the highest dilution and a maximum response at the lowest dilutions. Typically, six twofold serial dilutions of the serum from 1/4 to 1/128 were used.
Compounds were tested for their ability to reduce the diameter of the wheals at those intradermal sites which in control animals gave less than maximum response. Each dose of the compounds was administered to six rats at a measured time prior to intravenous challenge with ovalbumin. Control groups of six rats were given the same volume (0.2 ml: 100g^-1)of carrier fluid at the same time prior to the challenge.
The results were calculated as follows: % inhibition of PCA = 100 (1 - a/b) where a = the sum of the diameters of the wheals produced in the test animal at the sites of antibody dilutions as used in control groups and b = the mean sum of the diameters of the wheals produced in the control group of animals at those antibody sites where at least five out of six of the animals gave less than maximum response. A typical variation in the control group of animals was SEM+ 6%.

One may read the inhibition in vivo as how much of the control response was suppressed. The low end stands for little suppression, the high end for strong suppression. Consider `O=C1c2ccccc2S(=O)(=O)c2nn[nH]c21` [Example 2b, 9-Oxo-1H,9H-benzothiopyrano[2,3-d]-v-triazole-4,4-dioxide], for which the inhibition in vivo at 10 mg/kg stood at 68%.
`O=c1c2ccccc2[s+]([O-])c2nn[nH]c12` (racemic) [Example 9b, 9-Oxo-lH,9H-benzothiopyrano[2,3-dl-v-triazole-4-oxide] registered an inhibition in vivo at 0.5 mg/kg of 30% and an inhibition in vivo at 2 mg/kg of 61%.
In the case of `Cc1cc2sc3nn[nH]c3c(=O)c2cc1C` [Example 6d, 6,7-Dimethyl-9-oxo-1H,9H-benzothiopyrano[2,3-d]-v-triazole], the inhibition in vivo at 0.5 mg/kg came out at 65%, at 1 mg/kg the inhibition in vivo was 86% and testing at 2 mg/kg gave an inhibition in vivo of 90%.
With `Cc1cc2c(cc1C)S(=O)(=O)c1nn[nH]c1C2=O` [Example 7b, 6,7-Dimethyl-9-oxo-lH,9H-benzothiopyrano[2,3-d]-v-triazole-4,4-dioxide], at 0.5 mg/kg the inhibition in vivo was 56%, the inhibition in vivo at 1 mg/kg was determined as 59% and the inhibition in vivo at 2 mg/kg amounted to 74%.
On to `O=c1c2ccccc2sc2nn[nH]c12` [Example 1f, 9-Oxo-1H,9H-benzothiopyrano[2,3-d]-v-triazole], for which the inhibition in vivo at 1 mg/kg came out at 35% and the inhibition in vivo at 10 mg/kg was found to be 90%.
For the compound `COc1ccc2sc3nn[nH]c3c(=O)c2c1` [Example 8d, 7-Methoxy-9-oxo-lH,9H-benzothiopyrano[2,3-dl-v-triazole], the inhibition in vivo at 0.5 mg/kg was 34% and the inhibition in vivo at 2 mg/kg worked out at 58%.
Compound `Cc1ccc2c(c1)C(=O)c1[nH]nnc1S2(=O)=O` [Example 4b, 7-Methyl-9-oxo-IH, 9H-benzothiopyrano[2,3-d]-v-triazole-4,4-dioxide] had an inhibition in vivo at 10 mg/kg of 65%.
Turning to `Cc1ccc2sc3nn[nH]c3c(=O)c2c1` [Example 3d, 7-Nethyl-9-oxo-1H,9H-benzothiopyrano[2,3-d]-v-triazole], the inhibition in vivo at 10 mg/kg was 42%.
